In patent US20240261224A1, “FORMULATION OF A PAN-JAK INHIBITOR” (KINASET THERAPEUTICS, INC., priority 2022, published 2024):

Key:
[1] = APSD, MMAD, FPM and FPF determination (NGI, 90 L/min); assay type: physicochemical; settings: for Fine particle mass (≤5 μm): in µg (unit assumed)
Protocol: Cup coating agent was prepared by mixing 150 mL of a mixture of Brij® 35, ethanol, and glycerol with 850 ml of ethanol.
The cup coating agent was prepared, and the NGI was assembled. The collection cups were then coated with cup coating agent and then proceeded to dry. A PALL® A/E 76 mm filter was placed into the back-up filter and attached to the NGI. Approximately 15 mL of diluent was added into the pre-separator insert. The flow rate was set to 90 L/min and the capsule was pierced. One dose was discharged into the NGI by initiating the time-controlled solenoid valve for 2.70 seconds. Sample diluent was added (10 mL for 0.2 mg and 2.0 mg doses and 20 mL for 4.0 mg doses), and the collection cups were agitated on the NGI Gentle Rocker for 10 minutes. The induction port was added 40 mL of sample diluent and was shaken for 1 minute. The pre-separator was added 50 mL of sample diluent and was shaken for 1 minute. The back-up filter was transferred to a crystallizing dish with 20 mL of sample diluent and was then sonicated for 5 minutes. The capsule from each determination was then transferred to a 20 mL volumetric flask and sample diluent was added. The suspension was then shaken and sonicated until fully dissolved. The resulting solution equilibrated under ambient conditions and was then made up to volume. Each Monodose RS01 was placed into an individual plastic bag and 20 mL of recovery solution was added. The bag was shaken by hand for 1 minute and filtered prior to HPLC analysis.

NHP = assay: 13-week inhalation toxicology study, NHP model; assay type: in vivo
Protocol: Lactose/MgSt-based formulations of Compound I were evaluated during a 13-week inhalation toxicology study in an NHP model, and the corresponding results are presented in Table 16 below. […] The NOAEL was assigned to the highest dose study (7.9 mg/kg/day).

[2] = Margin of safety study versus 13-wk rat NOAEL; assay type: in vivo
Excerpt: Results from the margin of safety study of lactose/MgSt-based formulations of Compound I are shown below in Table 17.

[3] = tested on: fractional exhaled nitric oxide (FeNO); assay: Phase 1 Part 2: FeNO reduction in ICS-naïve mild asthmatics; assay type: in vivo, human; settings: for Mean placebo-corrected FeNO reduction: mild asthma ICS naïve
Protocol: A status summary of the phase 1 clinical trial recruitment is shown below in Table 18. Capsules filled with blend 2a were used to achieve a 0.6 mg target dose of Compound I (0.2 mg capsules×3). Capsules filled with blend 4 were used to achieve 2.0 mg, 4.0 mg, 6.0 mg, 8.0 mg, and 12.0 mg target doses of Compound I (2.0 mg capsule×1; 4.0 mg capsule×1; 2.0 mg capsules×3; 4.0 mg capsules×2; and 4.0 mg capsules×3, respectively). Twice daily dosing (BID) was achieved by repeating the preceding regime. For example, an 8.0 mg BID dosing regime is achieved by administering two doses of 4.0 mg capsules×2.
Particular FeNO reduction data from FIG. 5 is highlighted below in Table 19. For comparison, it is established that FeNO reductions greater than 20% are clinically significant (Am. J. Respir. Crit. Care Med. 2011, 184, 602).
Day 10 pharmacokinetic parameters for Parts 2 and 3 of Phase I are summarized below in Table 28. Part 2 involved the administration of 4 different dose regimens, to subjects with mild asthma naïve to ICS therapy, over a 10-day period. Each separate cohort comprised 6 subjects receiving active treatment with 2 receiving matching placebo. Blood samples were collected to enable the measurement of Compound I concentrations in plasma. The resultant data was used to determine the PK parameters at Day 10 representing the Day on which the final dose was received.

[4] = 2.0 mg capsule, 12 months 30/65
[5] = 2.0 mg capsule, 18 months 30/65
[6] = 2.0 mg capsule, 24 months 30/65
[7] = 4.0 mg capsule, 12 months 30/65
[8] = 4.0 mg BID vs 13-week rat study

Structure (SMILES): Cn1c(=O)n([C@H]2CCCN(C(=O)CC#N)C2)c2nc(-c3cnn4ccccc34)ccc21 [Compound I, (S)-3-(3-(1-methyl-2-oxo-5-(pyrazolo[1,5-a]pyridine-3-yl)-1H-imidazo[4,5-b]pyridine-3(2H)-yl)piperidin-1-yl)-3-oxopropanenitrile]
- MMAD ([1]; 2.0 mg and 4.0 mg formulations aerosolized, Tables 11 and 12): 1.8-2.0 μm
- FPF ([1]; 2.0 mg and 4.0 mg formulations, Tables 11 and 12, up to 24 months): 73-78%
- FPF % (FPM/Impactor dose) ([1]; 2.0 mg capsule, 1 month 30/65): 75.4%
- MMAD ([1]; 2.0 mg capsule, 1 month 30/65): 2.0 μm
- Fine particle mass (≤5 μm) ([1]; 2.0 mg capsule, 1 month 30/65): 1143.6
- FPF % (FPM/Impactor dose) ([1]; 2.0 mg capsule, 1 month 40/75): 75.9%
- MMAD ([1]; 2.0 mg capsule, 1 month 40/75): 1.9 μm
- Fine particle mass (≤5 μm) ([1]; 2.0 mg capsule, 1 month 40/75): 1046.6
- FPF % (FPM/Impactor dose) ([1]; 2.0 mg capsule, 3 months 30/65): 77.2%
- MMAD ([1]; 2.0 mg capsule, 3 months 30/65): 1.9 μm
- Fine particle mass (≤5 μm) ([1]; 2.0 mg capsule, 3 months 30/65): 1096.5
- FPF % (FPM/Impactor dose) ([1]; 2.0 mg capsule, 3 months 40/75): 77.2%
- MMAD ([1]; 2.0 mg capsule, 3 months 40/75): 1.8 μm
- Fine particle mass (≤5 μm) ([1]; 2.0 mg capsule, 3 months 40/75): 1090.9
- FPF % (FPM/Impactor dose) ([1]; 2.0 mg capsule, 6 months 30/65): 74.9%
- MMAD ([1]; 2.0 mg capsule, 6 months 30/65): 1.9 μm
- Fine particle mass (≤5 μm) ([1]; 2.0 mg capsule, 6 months 30/65): 1074.3
- FPF % (FPM/Impactor dose) ([1]; 2.0 mg capsule, 6 months 40/75): 74.7%
- MMAD ([1]; 2.0 mg capsule, 6 months 40/75): 1.9 μm
- Fine particle mass (≤5 μm) ([1]; 2.0 mg capsule, 6 months 40/75): 1069.6
- FPF % (FPM/Impactor dose) ([1]; 2.0 mg capsule, 9 months 30/65): 76.6%
- MMAD ([1]; 2.0 mg capsule, 9 months 30/65): 1.9 μm
- Fine particle mass (≤5 μm) ([1]; 2.0 mg capsule, 9 months 30/65): 1075.9
- FPF % (FPM/Impactor dose) [1, 4]: 77.3%
- MMAD [1, 4]: 1.9 μm
- Fine particle mass (≤5 μm) [1, 4]: 1098.4
- FPF % (FPM/Impactor dose) [1, 5]: 77.0%
- MMAD [1, 5]: 1.9 μm
- Fine particle mass (≤5 μm) [1, 5]: 1162.7
- FPF % (FPM/Impactor dose) [1, 6]: 78.0%
- MMAD [1, 6]: 2.0 μm
- Fine particle mass (≤5 μm) [1, 6]: 1083.1
- FPF % (FPM/Impactor dose) ([1]; 2.0 mg capsule, Release): 73.5%
- MMAD ([1]; 2.0 mg capsule, Release): 2.0 μm
- Fine particle mass (≤5 μm) ([1]; 2.0 mg capsule, Release): 1006.7
- FPF % (FPM/Impactor dose) ([1]; 4.0 mg capsule, 1 month 30/65): 75.1%
- MMAD ([1]; 4.0 mg capsule, 1 month 30/65): 1.8 μm
- Fine particle mass (≤5 μm) ([1]; 4.0 mg capsule, 1 month 30/65): 2181.6
- FPF % (FPM/Impactor dose) ([1]; 4.0 mg capsule, 1 month 40/75): 73.6%
- MMAD ([1]; 4.0 mg capsule, 1 month 40/75): 1.9 μm
- Fine particle mass (≤5 μm) ([1]; 4.0 mg capsule, 1 month 40/75): 2130.4
- FPF % (FPM/Impactor dose) ([1]; 4.0 mg capsule, 3 months 30/65): 75.4%
- MMAD ([1]; 4.0 mg capsule, 3 months 30/65): 1.8 μm
- Fine particle mass (≤5 μm) ([1]; 4.0 mg capsule, 3 months 30/65): 2167.8
- FPF % (FPM/Impactor dose) ([1]; 4.0 mg capsule, 3 months 40/75): 72.9%
- MMAD ([1]; 4.0 mg capsule, 3 months 40/75): 1.9 μm
- Fine particle mass (≤5 μm) ([1]; 4.0 mg capsule, 3 months 40/75): 2059.2
- FPF % (FPM/Impactor dose) ([1]; 4.0 mg capsule, 6 months 30/65): 73.6%
- MMAD ([1]; 4.0 mg capsule, 6 months 30/65): 1.9 μm
- Fine particle mass (≤5 μm) ([1]; 4.0 mg capsule, 6 months 30/65): 2098.3
- FPF % (FPM/Impactor dose) ([1]; 4.0 mg capsule, 6 months 40/75): 74%
- MMAD ([1]; 4.0 mg capsule, 6 months 40/75): 1.8 μm
- Fine particle mass (≤5 μm) ([1]; 4.0 mg capsule, 6 months 40/75): 2090
- FPF % (FPM/Impactor dose) ([1]; 4.0 mg capsule, 9 months 30/65): 74%
- MMAD ([1]; 4.0 mg capsule, 9 months 30/65): 1.8 μm
- Fine particle mass (≤5 μm) ([1]; 4.0 mg capsule, 9 months 30/65): 2116.2
- FPF % (FPM/Impactor dose) [1, 7]: 76.5%
- MMAD [1, 7]: 1.9 μm
- Fine particle mass (≤5 μm) [1, 7]: 2182.2
- FPF % (FPM/Impactor dose) ([1]; 4.0 mg capsule, 18 months): 75.4%
- MMAD ([1]; 4.0 mg capsule, 18 months): 1.9 μm
- Fine particle mass (≤5 μm) ([1]; 4.0 mg capsule, 18 months): 2254.8
- FPF % (FPM/Impactor dose) ([1]; 4.0 mg capsule, 24 months): 76.7%
- MMAD ([1]; 4.0 mg capsule, 24 months): 1.9 μm
- Fine particle mass (≤5 μm) ([1]; 4.0 mg capsule, 24 months): 2201.8
- FPF % (FPM/Impactor dose) ([1]; 4.0 mg capsule, Release): 75.3%
- MMAD ([1]; 4.0 mg capsule, Release): 1.9 μm
- Fine particle mass (≤5 μm) ([1]; 4.0 mg capsule, Release): 2157.0
- Treatment-related effects on clinical signs, bodyweight, food consumption, ophthalmoscopy, blood chemistry, urinalysis or macroscopic pathology (NHP; NHP, 13-week inhalation): No treatment-related effects
- MMAD (NHP; target delivered dose 0.9 mg/kg/day (low dose)): 1.9 μm
- MMAD (NHP; target delivered dose 2.7 mg/kg/day (mid dose)): 2.3 μm
- MMAD (NHP; target delivered dose 8.0 mg/kg/day (high dose)): 2.7 μm
- MoS versus inhalation toxicology study NOAELs, Lung exposure (mg/g lung) [2, 8]: 3925
- MoS versus inhalation toxicology study NOAELs, Plasma (group mean AUC0-24) [2, 8]: 85.6
- Group mean AUC0-24 MoS (Phase 1 clinical study versus inhalation tox study NOAELs) ([2]; 4.0 mg BID vs 13-wk rat NOAEL): 5.6
- Lung dose of Compound I (mg/g) MoS ([2]; 4.0 mg BID vs 13-wk rat NOAEL, adjusted for respirability assuming 10%, 25% and 100% lung deposition in rat, NHP and human): 25
- Pharmacological activity of dose regimen (FeNO) ([3]; 0.6 mg QD): minimally active dose
- % subjects reporting Day 10 FeNO value <25 ppb ([3]; 0.6 mg QD (n = 6)): 16%
- Mean placebo-corrected % FeNO reduction from day 1 pre-dose in ICS naïve mild asthmatics ([3]; 0.6 mg QD (n = 6), Day 10 + 3 hrs): −5.4%
- Mean placebo-corrected % FeNO reduction from day 1 pre-dose in ICS naïve mild asthmatics ([3]; 0.6 mg QD (n = 6), Day 10 + 6 hrs): −6.7%
- Mean placebo-corrected FeNO reduction ([3]; 0.6 mg QD, 3 capsules per dose): −7%
- Mean placebo-corrected FeNO changes ([3]; 0.6 mg QD, Day 1 pre-dose to Day 10): < 20%
- % subjects reporting Day 10 FeNO value <25 ppb ([3]; 2.0 mg QD (n = 6)): 16%
- Mean placebo-corrected % FeNO reduction from day 1 pre-dose in ICS naïve mild asthmatics ([3]; 2.0 mg QD (n = 6), Day 10 + 3 hrs): −26.6%
- Mean placebo-corrected % FeNO reduction from day 1 pre-dose in ICS naïve mild asthmatics ([3]; 2.0 mg QD (n = 6), Day 10 + 6 hrs): −24.0%
- Mean placebo-corrected FeNO reduction ([3]; 2.0 mg QD, 1 capsule per dose): −24%
- % subjects reporting Day 10 FeNO value <25 ppb ([3]; 4.0 mg BID (n = 6)): 67%
- Mean placebo-corrected % FeNO reduction from day 1 pre-dose in ICS naïve mild asthmatics ([3]; 4.0 mg BID (n = 6), Day 10 + 3 hrs): −29.1%
- Mean placebo-corrected % FeNO reduction from day 1 pre-dose in ICS naïve mild asthmatics ([3]; 4.0 mg BID (n = 6), Day 10 + 6 hrs): −30.6%
- Mean placebo-corrected FeNO reduction ([3]; 4.0 mg BID, 1 capsule per dose): −26%
- Mean placebo-corrected % FeNO reduction from Day 1 pre-dose ([3]; 4.0 mg BID, Day 10 + 3 hours): 29.1%
- Mean placebo-corrected % FeNO reduction from Day 1 pre-dose ([3]; 4.0 mg BID, Day 10 + 6 hours): 30.6%
- % subjects reporting Day 10 FeNO value <25 ppb ([3]; 8.0 mg BID (n = 6)): 50%
- Mean placebo-corrected % FeNO reduction from day 1 pre-dose in ICS naïve mild asthmatics ([3]; 8.0 mg BID (n = 6), Day 10 + 3 hrs): −29.1%
- Mean placebo-corrected % FeNO reduction from day 1 pre-dose in ICS naïve mild asthmatics ([3]; 8.0 mg BID (n = 6), Day 10 + 6 hrs): −25.9%
- Pharmacological activity of dose regimens (FeNO) ([3]; dose regimens from 2 mg QD to 8 mg BID): pharmacologically active
